Assay results reported in US11033641B2, “Radiolabelled mGluR2/3 pet ligands” (Janssen Pharmaceutica NV, priority 2015, dated 2021).

Legend:
Glu2-3 rat cortex = assay: [3H]-compound A displacement binding, rat cortical membranes; settings: 6 nM [3H]-compound A
Method: (§1) For [^3H]-compound A (a NAM compound, selective for mGlu2/3 (˜20 fold selective for 2 over 3) vs other mGluRs) binding, membranes from human mGlu2 and mGlu3 HEK293 cells, and also rat cortical membranes, were used. After thawing, membranes were homogenized using an Ultra Turrax homogenizer and suspended in ice-cold binding buffer containing 50 mM Tris-HCl (pH 7.4), 10 mM MgCl2, 2 mM CaCl2. Displacement studies were done using 6 nM of radioligand, except for human mGlu3 membranes where 25 nM was used. Assay mixtures were incubated for 60 min at RT in a volume of 0.5 ml containing […] or 75 μg membrane protein of human mGlu2, human mGlu3 or rat cortex, respectively. Non-specific binding was estimated in the presence of […] compound B (a NAM with IC50˜10 nM against hmGlu2 and IC50˜200 nM against hmGlu3). Filtration was performed using Whatman GF/C filter sheets pre-soaked in 0.1% PEI and a Brandell harvester 96.
(§2) Filters from filters sheets were punched into vials. After the addition of scintillation liquid, radioactivity on the filters was counted in a Liquid Scintillation Analyzer from Perkin Elmer.
Radioligand competition binding data were calculated as percentage of total binding measured in the absence of test compound. […] Sigmoid inhibition curves were analyzed using non-linear regression analysis.

human mGlu3 = target: T1, human mGlu3 (Homo sapiens, UniProt Q14832); assay: [3H]-compound A displacement binding, human mGlu3 HEK293 membranes; settings: Glu3 HEK293, 25 nM [3H]-compound A
T1 construct: expressed in transfected cells; host or cells: HEK293
Method: as §1, §2
(§3) Radioligand competition binding data were calculated as percentage of total binding measured in the absence of test compound. Inhibition curves, plotting percentage of total binding versus the log concentration of the test compound, were generated using the Lexis software. Sigmoid inhibition curves were analyzed using non-linear regression analysis.

mGluR2/3 = assay: microPET scan, baseline and after compound A pretreatment; format: in vivo; settings: SD rats
Method: Data were acquired in a 128×128×95 matrix with a pixel width of 0.475 mm and a slice thickness of 0.796 mm. During PET imaging, rats were kept under gas anesthesia (2.5% isoflurane in oxygen at a flow rate of 1 l/min), and their body temperature was maintained between 36.5 and 37° C. using a heating pad. PET data were analyzed using Pmod software version 3.2 (Pmod, Zurich Switzerland).
Sprague-Dawley rats obtained from Harlan (the Netherlands), were housed in groups of four to six per cage until treatment. They were kept at a constant temperature of 21° C. and at a 12-h light/dark cycle, in which lights were switched on at 8:00 a.m. Animals had unrestricted access to food (Teklad Global 16% Protein Rodent Diet, Harlan, Madison, Wis., USA) and water. All animal experiments were performed in compliance with Belgium laws on animal experimentation and after approval by the local animal ethics committee.
All pretreatment solutions were 1 mg/mL solutions in 20% β-cyclodextrine in saline with a pH ranging between 6 and 8, and sterile filtered over a Millex GV filter prior to use.
For the baseline scan, 36-43 MBq of [^18F]-1 was injected in 3 SD rats weighing 229-251 g in the tail vein, and scanned simultaneously during a 90 min dynamic PET scan. For the pretreatment scan using compound A (a NAM compound, selective for mGlu2/3 (˜20 fold selective for 2 over 3) vs other mGluRs), the same animals were injected with 10 mg/kg compound A s.c. 60 minutes prior to injection of 38-37 MBq [^18F]-1 in the tail vein, and scanned simultaneously during a 90 minutes dynamic PET scan.
For the baseline scan, 39-49 MBq of [^18F]-2 was injected in 3 SD rats weighing 301-310 g in a tail vein, and scanned simultaneously during a 90-min dynamic PET scan. For the pretreatment scan using compound A, the same animals were injected with 10 mg/kg compound A s.c. 60 min prior to injection of 46-50 MBq [^18F]-2 in the tail vein, and scanned simultaneously during a 90 min dynamic PET scan.

human mGlu2 = target: T2, human mGlu2 (Homo sapiens, UniProt Q14416); assay: [3H]-compound A displacement binding, human mGlu2 HEK293 membranes; settings: Glu2 HEK293, 6 nM [3H]-compound A
T2 construct: expressed in transfected cells; host or cells: HEK293
Method: as §1, §2, §3

T1 sequence (Q14832 23-879): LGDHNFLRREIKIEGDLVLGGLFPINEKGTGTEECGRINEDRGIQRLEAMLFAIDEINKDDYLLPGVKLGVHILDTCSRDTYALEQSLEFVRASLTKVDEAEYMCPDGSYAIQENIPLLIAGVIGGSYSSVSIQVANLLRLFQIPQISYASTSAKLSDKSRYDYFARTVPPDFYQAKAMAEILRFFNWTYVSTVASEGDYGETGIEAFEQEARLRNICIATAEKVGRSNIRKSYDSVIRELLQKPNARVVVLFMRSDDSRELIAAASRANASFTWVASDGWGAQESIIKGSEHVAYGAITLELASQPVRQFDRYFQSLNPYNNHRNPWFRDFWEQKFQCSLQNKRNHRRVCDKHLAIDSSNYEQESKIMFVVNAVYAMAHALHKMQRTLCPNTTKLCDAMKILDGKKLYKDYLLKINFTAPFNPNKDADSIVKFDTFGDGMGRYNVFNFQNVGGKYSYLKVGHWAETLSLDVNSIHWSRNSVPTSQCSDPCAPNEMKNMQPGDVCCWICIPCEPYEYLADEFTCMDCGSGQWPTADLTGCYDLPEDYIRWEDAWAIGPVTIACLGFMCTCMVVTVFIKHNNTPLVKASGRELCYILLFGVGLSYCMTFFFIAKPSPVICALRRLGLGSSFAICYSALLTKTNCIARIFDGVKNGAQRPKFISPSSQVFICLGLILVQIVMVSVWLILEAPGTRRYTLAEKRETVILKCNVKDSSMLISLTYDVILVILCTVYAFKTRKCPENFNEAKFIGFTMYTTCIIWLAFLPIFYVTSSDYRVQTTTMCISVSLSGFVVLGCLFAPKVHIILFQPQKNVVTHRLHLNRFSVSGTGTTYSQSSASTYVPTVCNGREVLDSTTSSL
T2 sequence (Q14416 19-872): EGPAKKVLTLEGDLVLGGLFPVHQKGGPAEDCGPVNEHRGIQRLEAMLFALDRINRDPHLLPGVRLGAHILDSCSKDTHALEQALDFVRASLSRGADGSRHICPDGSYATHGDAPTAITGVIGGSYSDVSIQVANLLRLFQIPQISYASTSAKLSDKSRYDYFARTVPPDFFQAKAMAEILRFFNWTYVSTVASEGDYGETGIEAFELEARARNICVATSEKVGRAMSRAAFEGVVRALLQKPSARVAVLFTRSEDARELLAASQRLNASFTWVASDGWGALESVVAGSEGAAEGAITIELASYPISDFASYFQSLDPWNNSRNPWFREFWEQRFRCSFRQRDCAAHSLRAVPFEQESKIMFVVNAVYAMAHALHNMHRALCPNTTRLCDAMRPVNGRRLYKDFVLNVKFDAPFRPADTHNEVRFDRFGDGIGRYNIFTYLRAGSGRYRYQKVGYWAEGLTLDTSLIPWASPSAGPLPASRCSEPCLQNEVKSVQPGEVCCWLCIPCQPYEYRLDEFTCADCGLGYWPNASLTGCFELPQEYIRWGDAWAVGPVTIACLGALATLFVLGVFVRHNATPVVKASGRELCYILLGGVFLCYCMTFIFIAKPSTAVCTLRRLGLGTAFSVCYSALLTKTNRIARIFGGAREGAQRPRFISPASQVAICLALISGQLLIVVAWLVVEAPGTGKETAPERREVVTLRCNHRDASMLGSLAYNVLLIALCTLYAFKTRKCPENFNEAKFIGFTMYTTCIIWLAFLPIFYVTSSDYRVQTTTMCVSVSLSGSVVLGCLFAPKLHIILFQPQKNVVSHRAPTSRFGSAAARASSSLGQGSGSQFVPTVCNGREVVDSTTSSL

Eff Curve (Glu2-3 rat cortex): 95 | pIC50 (Glu2-3 rat cortex): 8.78 | Eff Curve (human mGlu3): 104 | IC50 (human mGlu3): 7.24 nM | Brain uptake in PET scan, in words (mGluR2/3; 90 min dynamic PET scan): high brain uptake | Eff Curve (human mGlu2): 93 | IC50 (human mGlu2): 2.75 nM
SMILES: C[C@H]1CN(c2ccc(C(F)(F)F)cc2)C(=O)c2c(C#Cc3cnc(N)cc3C[18F])cnn21 [Compound 1]
Brain uptake after pretreatment with compound A (mGluR2/3; 10 mg/kg compound A s.c. 60 min before tracer): uptake was reduced after pretreatment with compound A | mGluR2/3 specificity of binding in vivo (mGluR2/3; PET, baseline vs compound A pretreatment): good mGluR2/3 specificity
